Assay results reported in patent US12285426B2, “Combination serotonin specific reuptake inhibitor and serotonin 1A receptor partial agonist for reducing L-DOPA-induced dyskinesia” (The Research Foundation for The State University of new York, priority 2018, dated 2025).

Assays:
[1] = test system: DRN 5-HT neurons; experiment: Example 3: in vivo single-unit recording of DRN 5-HT neurons; parameters: species or system rat; details: 8-OH-DPAT 1 μg/kg i.v.; WAY-100635 100 μg/kg i.v.
Text: Burr holes (˜1 mm in diameter) were drilled in the skull overlying the DRN of non-lesioned rats. Prior to experimentation all animals were anesthetized with urethane (1.5 g/kgi.p.) and placed in a stereotaxic apparatus. Bipolar stimulating/recording electrodes were implanted in the frontal cortex and DRN on the right side using a micromanipulator (coordinates from Bregma: AP: 3.2 mm; ML: 0.8 mm lateral; DV: 4.4 mm ventral (frontal cortex) or AP: 7.8 mm; ML 3.1 mm; DV: 7.5 mm with the manipulator angled 30 degrees toward Bregma) as previously described [Chakroborty 2017].
Electrophysiology: Recording microelectrodes were manufactured from 2.0 mm OD borosilicate glass capillary tubing and filled with sodium chloride (2M) solution. […] Temperature was monitored using a rectal probe and maintained at 37 C.° using a heating pad (VI-20F, Fintronics Inc., Orange, CT). […] Once isolated, recordings consisted of basal (pre-drug), saline vehicle, and drug-treatment-(see below) induced changes in spike activity recorded in a series of 3 min duration epochs.
All compounds and physiological 0.9% saline were prepared daily and administered intravenously (i.v.) through the lateral tail vein to enable rapid examination of potential acute effects of vehicle or drug on DRN neuronal activity. […] DRN 5-HT neuron activity was recorded prior to and immediately following drug administration as described above.

[2] = molecular target: T1, 5-HT1A receptor expressed in SF9 cells (Homo sapiens, UniProt P08908); details: cited from earlier work
T1 construct: expressed in transfected cells; host or cells: SF9 cells
T1 sequence (P08908 1-422): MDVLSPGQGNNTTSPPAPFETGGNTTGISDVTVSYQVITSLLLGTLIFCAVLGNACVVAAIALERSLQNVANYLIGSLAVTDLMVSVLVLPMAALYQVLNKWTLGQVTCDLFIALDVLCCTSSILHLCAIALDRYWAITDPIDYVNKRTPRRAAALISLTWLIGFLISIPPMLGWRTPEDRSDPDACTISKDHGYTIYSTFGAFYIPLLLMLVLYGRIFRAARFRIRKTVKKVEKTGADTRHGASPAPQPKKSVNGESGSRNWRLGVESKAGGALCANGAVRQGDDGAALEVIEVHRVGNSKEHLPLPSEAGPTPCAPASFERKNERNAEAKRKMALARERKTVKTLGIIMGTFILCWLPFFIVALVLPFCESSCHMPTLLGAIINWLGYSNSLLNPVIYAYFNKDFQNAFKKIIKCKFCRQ

[3] = test system: 6-OHDA-lesioned rats, forelimb akinesia; experiment: Example 2: stepping test; type: in vivo, rat; details: 60 minutes post L-DOPA
Protocol: 6-OHDA-induced dopaminergic lesions: Adult male Sprague-Dawley rats were randomly assigned to groups receiving either a 6-OHDA or sham lesion. All rats received desipramine (10 mg/kg i.p.) 30 min prior to surgery to prevent the lesioning of norepinephrine neurons by 6-OHDA. A single injection of 6-OHDA (8 μg of 6-OHDA free base in 4 p of 0.1% ascorbic acid) was delivered into the right medial forebrain bundle (coordinates taken from bregma: −4.3 mm AP, 1.6 mm ML, −8.3 mm DV). The same experimental treatment was performed for the sham-operated rats using vehicle (4 μl of 0.1% ascorbic acid). A standard stepping test was used to evaluate the effectiveness of the 6-OHDA lesion.
Rats were treated for 5 consecutive days/week (Mon-Fri), for 2 weeks. On the second day of each week, stepping tests were performed prior to drug administration, and 60 minutes post L-DOPA treatment.

[4] = test system: 6-OHDA-lesioned rats, L-DOPA-induced dyskinesias; experiment: Example 2: LIDs scoring in unilateral 6-OHDA-lesioned rats; type: in vivo, rat; details: vilazodone 10 mg/kg or escitalopram 12.5 mg/kg + L-DOPA 5 mg/kg, 2 weeks
Protocol: 6-OHDA-induced dopaminergic lesions: Adult male Sprague-Dawley rats were randomly assigned to groups receiving either a 6-OHDA or sham lesion. […] [[…] 2019]. […] Rats were treated for 5 consecutive days/week (Mon-Fri), for 2 weeks. […] All rats were evaluated three times per week for the presence of L-DOPA-induced dyskinesias (LIDs) (Wed-Fri) and once for the stepping test (Tue). […] Scores were given over 1 min epochs and classified as axial, limb, orolingual and locomotive. […] The severity of each LID was scored using a standard scale. Each dyskinetic behavior was given an intensity and frequency score, which were then multiplied. The average sum of the products of each LID was determined in each animal.

[5] = test system: striatum and DRN monoamines and metabolites; experiment: Experiment 1: HPLC of striatal and dorsal raphe tissue monoamines; type: in vivo, rat
Protocol: Rats (n=30) were rendered hemi-parkinsonian with unilateral 6-OHDA lesions of the left MFB. Three-weeks post-lesion, animals were divided into 2 equally disabled groups, measured by forepaw adjusting steps (FAS, see below). One group (n=8) began receiving 14 days of daily vehicle (0.9% NaCl+0.1% ascorbic acid) and the other (n=22) received L-DOPA methyl ester (6 mg/kg, s.c.; Sigma)+DL-serine 2-(2,3,4-trihydroxybenzyl) hydrazine hydrochloride (benserazide; 15 mg/kg, s.c.; Sigma), hereafter L-DOPA, dissolved in vehicle at a volume of 1 mL/kg. […] Thereafter, L-DOPA-treated animals with Axial, Limb, and Orolingual (ALO) AIMs (see description below, FIG. 1A)<30 were excluded from the study and the remaining L-DOPA-treated animals were divided into 3 equally dyskinetic groups. […] Daily injections continued over 23 days, with behavior assayed on Days 15, 22, 29, and 36. On Day 37, animals were killed 60 min post-treatment. Left and right dorsal striata and DRN were dissected and flash frozen for HPLC analyses.
High-performance liquid chromatography (HPLC): HPLC, a method for semi-automated catecholamine analysis with coulometric detection, was performed according to prior protocols (Bishop et al., 2009) to determine the tissue levels of monoamines, their metabolites, and monoamine turnover in the striatum and DRN. The limit of detection for DOPAC, DA, 5-hydroxyindoleacetic acid (5-HIAA) and 5-HT was 10^−10 M. Final oxidation current values were plotted on a standard curve from 10^−6 M to 10^−9 M and expressed as pg of monoamine or metabolite per mg of tissue unless otherwise specified.
On the final treatment day, animals were sacrificed 60 min post-LD treatment and left and right striata and dorsal raphe nucleus (DRN) were collected for high performance liquid chromatography (HPLC) analysis. Values (means±standard mean error) are expressed as picograms of monoamine or metabolite per milligram wet tissue weight. Turnover estimates were determined by dividing a subject's metabolite value by its corresponding monoamine.

[6] = test system: lesion-induced motor deficits; experiment: FIG. 23D: % intact stepping; type: in vivo; details: L-DOPA alone or with AMA 40 mg/kg and/or VZD 2.5 mg/kg
[7] = test system: 6-OHDA-lesioned rats, L-DOPA-induced dyskinesia; experiment: Experiment 1: AIMs, established LID in L-DOPA-primed hemi-parkinsonian rats; type: in vivo, rat; details: LD 6 mg/kg s.c. vs L-DOPA vehicle
[8] = test system: striatal c-Fos, PPD, PPE, PPT, 5-HT1AR mRNA; experiment: Experiment 2: real-time RT-PCR of striatal gene expression
[9] = test system: 6-OHDA-lesioned rats, forelimb akinesia; experiment: Experiment 2: forepaw adjusting steps (FAS); type: in vivo, rat; details: LD 6 mg/kg alone or with VZD
Text: (§1) Forepaw adjusting steps (FAS): The FAS test is a measure of forelimb akinesia performed according to previous protocols (Bishop et al., 2012; Chang et al., 1999). Data are presented as mean percent intact stepping where the sum of the total steps with the lesioned forepaw was divided by the total steps with the unlesioned forepaw multiplied by 100. Lower percent intact scores indicate greater forelimb akinesia. Prior to baseline, rats received 2 acclimation periods. On-treatment FAS was performed 60 min post-L-DOPA.

[10] = in vivo; cited from earlier work
[11] = test system: 6-OHDA-lesioned rats, forelimb akinesia; experiment: Experiment 1: forepaw adjusting steps (FAS); type: in vivo, rat; details: LD 6 mg/kg alone or with VZD 10/20 mg/kg
Text: as §1, with “Conti et al., 2014). […] Forepaw” for “Forepaw”

[12] = test system: L-DOPA-primed 6-OHDA-lesioned rats; 5-HT1BR; experiment: Experiment 3: AIMs with 5-HT1BR antagonist NAS-181; type: in vivo, rat; details: VZD 10 mg/kg, NAS-181 3.0 mg/kg, LD 6 mg/kg s.c.
Protocol: All 6-OHDA-lesioned rats (n=17) were tested on the FAS prior to treatment regimens to establish baseline motor performance. Three-weeks post-surgery, all rats were primed with L-DOPA (6 mg/kg, s.c.) for 14 days.
Beginning 10 min post-treatment, a trained and blinded observer assigned a severity score (0-4) to each of the ALO AIMs based on 1 min ratings every 10 min for 3 h: 0, not present; 1, present from 1-29 s; 2, present 30-59s; 3, present all 60 s, but interruptible by a cylinder tap; 4, present 60 s and not interruptible by a cylinder tap.

[13] = test system: L-DOPA-primed 6-OHDA-lesioned rats; 5-HT1AR; details: VZD 10 mg/kg, WAY 0.5 mg/kg, LD 6 mg/kg s.c.
[14] = Dorsal Raphe Nucleus, VZD(0)+LD(6) mg/kg s.c.

SMILES: Br.CCCN(CCC)C1CCc2cccc(O)c2C1 (stereo not drawn) [8-OH-DPAT, 8-hydroxy-2-(dipropylamino) tetralin hydrobromide]
- spontaneous firing of DRN 5-HT neuron [1]: suppressed the spontaneous firing of a DRN neuron
- increase of [35S]GTPyS binding compared to vehicle [2]: eightfold

SMILES: CN(C)CCC[C@@]1(c2ccc(F)cc2)OCc2cc(C#N)ccc21 [Escitalopram]
- forelimb akinesia / L-DOPA therapeutic (prokinetic) efficacy [3]: affected L-DOPA therapeutic efficacy
- LIDs severity [4]: significantly reduced LIDs severity

SMILES: N[C@@H](Cc1ccc(O)c(O)c1)C(=O)O [L-DOPA, L-3,4-dihydroxyphenylalanine]
- 5-HIAA [5, 14]: 2778 pg/mg wet tissue weight
- 5-HT [5, 14]: 5457 pg/mg wet tissue weight
- 5-HT Turnover [5, 14]: 0.57
- DA [5, 14]: 112 pg/mg wet tissue weight
- DA Turnover [5, 14]: 10.3
- DOPAC [5, 14]: 1114 pg/mg wet tissue weight
- DRN DA, DOPAC and DA Turnover ([5]; LD 6 mg/kg): significantly increased DRN levels of DA, DOPAC and DA Turnover
- % intact stepping [6]: reversed lesion-induced motor deficits
- LID during 14 days of priming [7]: significantly greater LID
- striatal PPE mRNA ([8]; lesioned striata, LD 6 mg/kg, VZD 20 mg/kg, day 23): significantly increased PPE in the lesioned striata
- striatal PPD mRNA ([8]; lesioned striata, LD 6 mg/kg, VZD 10/20 mg/kg, day 23): significantly increased PPD in the lesioned striata
- striatal c-Fos mRNA ([8]; lesioned striata, LD 6 mg/kg, VZD 10 or 20 mg/kg, day 23): potentiated c-Fos in lesioned striata
- striatal PPT mRNA ([8]; rat, in vivo): did not increase striatal PPT
- FAS vs baseline [9]: significant increases in motor ability on each test day
- fraction crossing the blood-brain barrier [10]: 5-10%
- FAS motor performance vs baseline [11]: significant improvements on motor performance over baseline

SMILES: C1=C(CN2CCOCC2)COc2c1cccc2OC[C@H]1CNCCO1.CS(=O)(=O)O [NAS-181, (R)-(+)-2-(3-morpholinomethyl-2H-chromen-8-yl) oxymethyl-morpholine methane-sulfonate]
- ALO AIMs [12]: did not significantly alter AIMs or their reduction by Vilazodone

SMILES: COc1ccccc1N1CCN(CCN(C(=O)C2CCCCC2)c2ccccn2)CC1.O=C(O)/C=C\C(=O)O [WAY100635, N-[2-[4(2-Methoxyphenyl)-1-piperazinyl]ethyl]-N-2-pyridinylcyclohexanecarboxamide maleate salt]
- summed ALO AIMs [13]: partially reversed the anti-dyskinetic efficacy of Vilazodone
- spontaneous firing of DRN 5-HT neuron [1]: return to baseline firing
- LIDs severity [4]: reverses the beneficial effects of vilazodone on LIDs
